Measurements: patent US10253039B2, “Inhibitors of bacterial DNA gyrase with efficacy against gram-negative bacteria” (priority 2014, dated 2019)
Like-named read-outs stand apart in the source and are kept apart here.

Assays:
E. coli BW25113 ΔtolC = experiment: MIC, microdilution in 96-well plates
[1] = test system: E. coli BW25113 ΔtolC cipR isolate GyrA Ser83Leu; experiment: MIC against ciprofloxacin-resistant mutant
[2] = test system: E. coli BW25113 ΔtolC cipR isolate GyrA Asp87Gly; experiment: MIC against ciprofloxacin-resistant mutant
[3] = test system: E. coli BW25113 ΔtolC cipR isolate GyrA Asp87Tyr; experiment: MIC against ciprofloxacin-resistant mutant
[4] = test system: E. coli BW25113 ΔtolC cipR isolate GyrB Ser464Phe; experiment: MIC against ciprofloxacin-resistant mutant
[5] = test system: ciprofloxacin resistant strains of E. coli; experiment: MIC against ciprofloxacin resistant strains compared to parent strain; conditions: ratio to MIC of parent strain E. coli BW25113 ΔtolC
Acinetobacter baumannii = experiment: MIC, microdilution in 96-well plates; format: cell-based; conditions: Table 7, separate set of experiments, read-out: MIC
Outline: (§1)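 Each of the 20 strains is tested in LB at a 1:10000 dilution of a growing subculture. Compound is titrated 2-fold in three replicates; a DMSO column serves as vehicle control. After shaking incubation at 37° C. for 16-18 hours, MIC is taken as the lowest clear concentration.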

E. coli BW25113 = experiment: MIC, microdilution in 96-well plates; format: cell-based; conditions: Escherichia coli, read-out: MIC
Outline: as §1

Edwardsiella tarda = experiment: MIC, microdilution in 96-well plates; format: cell-based; conditions: read-out: MIC
Outline: as §1

Enterobacter aerogenes = experiment: MIC, microdilution in 96-well plates; format: cell-based; conditions: Klebsiella aerogenes, Enterobacter aerogenes; Table 7, separate set of experiments; read-out: MIC
Outline: as §1

Pseudomonas aeruginosa = experiment: MIC, microdilution in 96-well plates; format: cell-based; conditions: Table 7, separate set of experiments, read-out: MIC
Outline: as §1

Bacillus cereus = experiment: MIC, 20-strain panel; format: cell-based
Outline: as §1

Bacillus subtilis 168 = experiment: MIC, 20-strain panel; format: cell-based
Outline: as §1

E. coli JW5503 (deltolC) = experiment: MIC, 20-strain panel; format: cell-based; conditions: Escherichia coli
Outline: as §1

E. coli MG1655 = experiment: MIC, 20-strain panel; format: cell-based; conditions: Escherichia coli, read-out: MIC
Outline: as §1

Enterococcus faecalis = experiment: MIC, 20-strain panel; format: cell-based; conditions: Table 7, separate set of experiments
Outline: as §1

Enterococcus faecium = experiment: MIC, 20-strain panel; format: cell-based
Outline: as §1

[6] = test system: Klebsiella pneumoniae subsp. pneumoniae; experiment: MIC, 20-strain panel; format: cell-based; conditions: read-out: MIC
Outline: as §1

[7] = test system: Morganella morganii subsp. morganii; experiment: MIC, 20-strain panel; format: cell-based; conditions: Morganella morganii subsp. morganii; Table 7, separate set of experiments; read-out: MIC
Outline: as §1

[8] = test system: Salmonella enterica subsp. enterica typhimurium; experiment: MIC, 20-strain panel; format: cell-based
Outline: as §1

Shigella flexneri = experiment: MIC, 20-strain panel; format: cell-based
Outline: as §1

[9] = test system: Staphylococcus aureus subsp. aureus; experiment: MIC, 20-strain panel; format: cell-based; conditions: read-out: MIC
Outline: as §1

[10] = test system: Staphylococcus epidermidis; experiment: MIC, 20-strain panel; format: cell-based; conditions: read-out: MIC
Outline: as §1

[11] = test system: Staphylococcus saprophyticus subsp. saprophyticus; experiment: MIC, 20-strain panel; format: cell-based; conditions: read-out: MIC
Outline: as §1

Streptococcus agalactiae = experiment: MIC, 20-strain panel; format: cell-based; conditions: read-out: MIC
Outline: as §1

Streptococcus pyogenes = experiment: MIC, 20-strain panel; format: cell-based; conditions: read-out: MIC
Outline: as §1

[12] = test system: E. coli BW25113 ΔtolC gyrR isolate GyrA Pro35Thr; experiment: MIC against gyramide-resistant mutant; conditions: Escherichia coli, BW25113
[13] = test system: E. coli BW25113 ΔtolC gyrR isolate GyrA Ser97Pro; experiment: MIC against gyramide-resistant mutant; conditions: Escherichia coli, BW25113
[14] = test system: E. coli BW25113 ΔtolC gyrR isolate GyrA Phe96Leu; experiment: MIC against gyramide-resistant mutant; conditions: Escherichia coli, BW25113
[15] = test system: E. coli BW25113 ΔtolC gyrR isolate GyrA His45Tyr; experiment: MIC against gyramide-resistant mutant; conditions: Escherichia coli, BW25113
[16] = test system: E. coli BW25113 ΔtolC gyrR isolate GyrB Thr508Met; experiment: MIC against gyramide-resistant mutant; conditions: Escherichia coli, BW25113
[17] = BW25113, E. coli BW25113, Table 7, separate set of experiments
[18] = Table 7, separate set of experiments
[19] = 20-strain screen of Table 6, read-out: MIC
[20] = E. coli JW5503 (deltolC), Table 7, separate set of experiments
[21] = MG1655, E. coli MG1655, Table 7, separate set of experiments
[22] = E: Klebsiella pneumoniae subsp. pneumoniae
[23] = Klebsiella pneumoniae subsp. pneumoniae, Table 7, separate set of experiments
[24] = F: Salmonella enterica subsp. enterica Typhimurium
[25] = Salmonella enterica subsp. enterica typhimurium, Table 7, separate set of experiments
[26] = H: Staphylococcus aureus subsp. aureus
[27] = Staphylococcus aureus subsp. aureus, Table 7, separate set of experiments
[28] = I: Staphylococcus saprophyticus subsp. saprophyticus
[29] = Staphylococcus saprophyticus subsp. saprophyticus, Table 7, separate set of experiments
[30] = Table 7, separate set of experiments, read-out: MIC

Cc1ccc(F)cc1S(=O)(=O)NC1CCN(Cc2ccc(-c3ccccc3)cc2)C1 (stereo not drawn) [Gyramide C]
1-4 times: MIC against ciprofloxacin resistant strains compared to the parent strain [5]
5 µM: MIC ([2]; cipR isolate GyrA Asp87Gly) | MIC ([3]; cipR isolate GyrA Asp87Tyr)
10 µM: MIC ([4]; cipR isolate GyrB Ser464Phe)
2.5 µM: MIC (E. coli BW25113 ΔtolC; E. coli BW25113 ΔtolC (parent strain), Table 5) | MIC ([1]; cipR isolate GyrA Ser83Leu)

Cc1ccc(C(F)(F)F)cc1S(=O)(=O)N[C@@H]1CCN(Cc2ccc(OC3CC3)cc2)C1 [Compound 91]
> 8 µg/mL: MIC [6, 22]
< 0.0078 µg/mL: MIC (E. coli JW5503 (deltolC); [20])
< 0.0625 µg/mL: MIC (E. coli JW5503 (deltolC); C: E. coli JW5503 (deltolC))
8 µg/mL: MIC (E. coli BW25113; BW25113, B: E. coli BW25113) | MIC (E. coli BW25113; [17]) | MIC (Edwardsiella tarda; D: Edwardsiella tarda) | MIC (Edwardsiella tarda; [18]) | MIC (Bacillus cereus; [19]) | MIC (Bacillus cereus; [18]) | MIC (Bacillus subtilis 168; [19]) | MIC (Bacillus subtilis 168; [18]) | MIC (E. coli MG1655; [21]) | MIC (Enterococcus faecium; [19]) | MIC (Enterococcus faecium; [18]) | MIC (Shigella flexneri; G: Shigella flexneri) | MIC [9, 27] | MIC [10, 18] | MIC [11, 28] | MIC [11, 29] | MIC (Streptococcus agalactiae; K: Streptococcus agalactiae) | MIC (Streptococcus agalactiae; [18])
> 16 µg/mL: MIC (Acinetobacter baumannii) | MIC (Enterobacter aerogenes) | MIC (Pseudomonas aeruginosa) | MIC [6, 23] | MIC [7]
16 µg/mL: MIC (Enterococcus faecalis)
4 µg/mL: MIC (E. coli MG1655; MG1655, A: E. coli MG1655) | MIC [8, 24] | MIC [8, 25] | MIC (Shigella flexneri; [18]) | MIC [9, 26] | MIC (Streptococcus pyogenes; L: Streptococcus pyogenes) | MIC (Streptococcus pyogenes; [18])
2 µg/mL: MIC ([10]; J: Staphylococcus epidermidis)

O=C(O)c1cn(C2CC2)c2cc(N3CCNCC3)c(F)cc2c1=O [Ciprofloxacin, ciprofloxacin]
0.05 µM: MIC ([2]; Escherichia coli, BW25113) | MIC ([4]; Escherichia coli, BW25113)
0.00625 µM: MIC (E. coli BW25113 ΔtolC; Escherichia coli, BW25113, E. coli BW25113 ΔtolC (parent strain), Table 5)
0.005 µM: MIC (E. coli BW25113 ΔtolC; Escherichia coli, BW25113, E. coli BW25113 ΔtolC (parent strain), Table 4) | MIC [12] | MIC [13]
0.1 µM: MIC ([3]; Escherichia coli, BW25113)
0.2 µM: MIC ([1]; Escherichia coli, BW25113)
0.01 µM: MIC [14] | MIC [15] | MIC [16]

Cc1ccc(C#N)cc1S(=O)(=O)N[C@@H]1CCN(Cc2ccc(-c3ccccc3)cc2)C1 [Compound 143]
~8 µg/mL: MIC (E. coli BW25113; BW25113, B: E. coli BW25113) | MIC (Edwardsiella tarda; D: Edwardsiella tarda) | MIC ([10]; J: Staphylococcus epidermidis)
< 0.0078 µg/mL: MIC (E. coli JW5503 (deltolC); [20])
< 0.0625 µg/mL: MIC (E. coli JW5503 (deltolC); C: E. coli JW5503 (deltolC))
2 µg/mL: MIC [8, 25]
16 µg/mL: MIC (E. coli MG1655; [21])
1 µg/mL: MIC [8, 24]
8 µg/mL: MIC (E. coli BW25113; [17]) | MIC (Edwardsiella tarda; [18]) | MIC (E. coli MG1655; MG1655, A: E. coli MG1655)
4 µg/mL: MIC (Shigella flexneri; G: Shigella flexneri) | MIC (Shigella flexneri; [18])
> 8 µg/mL: MIC [6, 22] | MIC [9, 26] | MIC [11, 28] | MIC (Streptococcus agalactiae; K: Streptococcus agalactiae) | MIC (Streptococcus pyogenes; L: Streptococcus pyogenes)
> 16 µg/mL: MIC (Acinetobacter baumannii) | MIC (Enterobacter aerogenes) | MIC (Pseudomonas aeruginosa) | MIC (Bacillus cereus; [30]) | MIC (Bacillus subtilis 168; [30]) | MIC (Enterococcus faecalis) | MIC (Enterococcus faecium; [30]) | MIC [6, 23] | MIC [7] | MIC [9, 27] | MIC [10, 18] | MIC [11, 29] | MIC (Streptococcus agalactiae; [18]) | MIC (Streptococcus pyogenes; [18])
